This note sets out measurements from patent publication US20260258050A1, “IMMUNOMODULATOR” (HITGEN INC., priority 2023, published 2026).

The target of test [1] is T1, Human IL-17A (Homo sapiens, UniProt Q16552).
T1 sequence (Q16552 20-155 limits assumed): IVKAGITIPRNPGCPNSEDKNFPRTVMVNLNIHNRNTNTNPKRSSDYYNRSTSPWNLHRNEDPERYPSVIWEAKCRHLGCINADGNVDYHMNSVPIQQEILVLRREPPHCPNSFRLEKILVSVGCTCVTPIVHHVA
Put plainly: IL-17A enzyme-linked immunosorbent assay (competitive ELISA, IL-17A/IL-17Ra receptor-ligand binding). Also noted: purchased Sino Biological Inc. 12047-H07B. The following applies: human IL-17A coated plate, human IL-17Ra, read-out: IC50, inhibitory activity of compounds on human IL-17A. The essentials: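 Competitive ELISA with plates coated with human IL-17A at 0.2 μg/ml, blocked with 5% skim milk. Compound pre-incubated with IL-17A 10 min at 25 °C, then 16 nM IL-17Ra stock added for 30 min. Bound receptor detected by anti-Fc HRP/TMB, A450. IC50 from variable-slope fit of blank-corrected residual activity.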
On the technique in general: An ELISA detects its analyte on a solid surface through an enzyme-linked reagent.

For test [2], the target named is T1, Human IL-17A. Put plainly: Inhibition of human IL-17A protein-induced GROα/CXCL1 production in HT-29 cells. The test is classed as cell-based. Also noted: purchased R&D 317-ILB; host or cells: added exogenously to HT-29 cells. The following applies: 30 ng/mL human IL-17A protein, 48 h, GROα in supernatant by ELISA kit, read-out: Inhibitory IC50 of compounds on HT-29 cell GROα/CXCL1. The essentials: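 Compound dilutions were preincubated 1 h at 37 °C with 30 ng/mL human IL-17A, then added to HT-29 cells (5×10^4/well) for 48 h at 37 °C. GROα in supernatant quantified by ELISA; IC50 for inhibition of its production. Positive control: IL-17A antibody at […].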

On to `Cc1[nH]nc2c1-c1cnc(NC(=O)[C@@H](NC(=O)/C(F)=C\C(C)C)C(C3CC3)C3CC3)cc1COCC2` [compound 238], for which the IC50 is at most 0.05 µM on Human IL-17A [1] and at most 0.1 µM at Human IL-17A [2].
In the same order, the values of `Cc1[nH]nc2c1-c1cc(F)c(NC(=O)[C@@H](NC(=O)c3ccnn3CC3COC3)C(C3CC3)C3CC3)cc1COCC2` [compound 115] are at most 0.05 µM and 0.1 to 0.5 µM.
In the same order, the values of `Cc1[nH]nc2c1-c1cc(F)c(NC(=O)[C@@H](NC(=O)c3ccnn3CCCF)C(C3CC3)C3CC3)cc1CN(C1CC1)CC2` [compound 218] are at most 0.05 µM and at most 0.1 µM.
Turning to `CCCn1nccc1C(=O)N[C@H](C(=O)Nc1cc2c(cc1F)-c1c(n[nH]c1C)CCOC2)C(C1CC1)C1CC1` [compound 62], the IC50 on Human IL-17A [1] is at most 0.05 µM; on Human IL-17A [2], 0.1 to 0.5 µM.
In the same order, the values of `CCOCCn1nccc1C(=O)N[C@H](C(=O)Nc1cc2c(cc1F)-c1c(n[nH]c1C)CCOC2)C(C1CC1)C1CC1` [compound 100] are at most 0.05 µM and 0.1 to 0.5 µM.
For the compound `CCn1nccc1C(=O)N[C@H](C(=O)Nc1ccc2c(c1)CNC(=O)Cc1n[nH]c(C)c1-2)C(C1CC1)C1CC1` [compound 28], the IC50 on Human IL-17A [1] is at most 0.05 µM; on Human IL-17A [2], 0.1 to 0.5 µM.
On the same counts, the results for `Cc1[nH]nc2c1-c1cnc(NC(=O)[C@@H](NC(=O)c3conc3C(C)C)C(C3CC3)C3CC3)cc1CN(C1CC1)CC2` [compound 214] are at most 0.05 µM and at most 0.1 µM.
On the same counts, the results for `Cc1[nH]nc2c1-c1cnc(NC(=O)[C@@H](NC(=O)c3ccnn3C(C)C)C(C3CC3)C3CC3)cc1CN(CC(F)F)CC2` [compound 202] are at most 0.05 µM and at most 0.1 µM.
In the same order, the values of `Cc1[nH]nc2c1-c1cc(F)c(NC(=O)[C@@H](NC(=O)c3ccnn3C(C)C)C(C3CC3)C3CC3)cc1CN(C1CCOCC1)CC2` [compound 174] are at most 0.05 µM and at most 0.1 µM.
As to `Cc1[nH]nc2c1-c1cc(F)c(NC(=O)[C@@H](NC(=O)c3ccnn3CC(C)(F)F)C(C3CC3)C3CC3)cc1COCC2` [compound 87], the IC50 is at most 0.05 µM on Human IL-17A [1] and 0.1 to 0.5 µM on Human IL-17A [2].
In the same order, the values of `Cc1[nH]nc2c1-c1cc(F)c(NC(=O)[C@@H](NC(=O)c3ccnn3CCC(F)F)C(C3CC3)C3CC3)cc1COCC2` [compound 65] are at most 0.05 µM and 0.1 to 0.5 µM.
On the same counts, the results for `Cc1[nH]nc2c1-c1cnc(NC(=O)[C@@H](NC(=O)c3ccnn3C(C)C)C(C3CC3)C3CC3)cc1CN(CC(C)(F)F)C(=O)C2` [compound 193] are at most 0.05 µM and at most 0.1 µM.
Take `Cc1[nH]nc2c1-c1cc(F)c(NC(=O)[C@@H](NC(=O)c3ccnn3C(C)C)C(C3CC3)C3CC3)cc1COCC2` [compound 15]: the IC50 at Human IL-17A [1] was at most 0.05 µM; on Human IL-17A [2], at most 0.1 µM.
As for `CSCCn1nccc1C(=O)N[C@H](C(=O)Nc1cc2c(cc1F)-c1c(n[nH]c1C)CCOC2)C(C1CC1)C1CC1` [compound 61], the IC50 on Human IL-17A [1] was at most 0.05 µM; on Human IL-17A [2], 0.1 to 0.5 µM.
On the same counts, the results for `[2H]C([2H])([2H])C([2H])(n1nccc1C(=O)N[C@H](C(=O)Nc1cc2c(cn1)-c1c(n[nH]c1C)CCOC2)C(C1CC1)C1CC1)C([2H])([2H])[2H]` [compound 54] are at most 0.05 µM and at most 0.1 µM.
On to `Cc1[nH]nc2c1-c1cc(F)c(NC(=O)[C@@H](NC(=O)c3ccnn3C(C)C)C(C3CC3)C3CC3)cc1CN(C1CCOCC1)C(=O)C2` [compound 167], for which the IC50 at Human IL-17A [1] is at most 0.05 µM; at Human IL-17A [2] it was at most 0.1 µM.
In the same order, the values of `Cc1[nH]nc2c1-c1cc(F)c(NC(=O)[C@@H](NC(=O)c3ccnn3C(C)CF)C(C3CC3)C3CC3)cc1COCC2` (single isomer, unassigned) [compound 42b] are at most 0.05 µM and 0.1 to 0.5 µM.
On the same counts, the results for `Cc1[nH]nc2c1-c1cc(F)c(NC(=O)[C@@H](NC(=O)c3ccnn3CCOC(C)(C)C)C(C3CC3)C3CC3)cc1COCC2` [compound 113] are at most 0.05 µM and 0.1 to 0.5 µM.
Turning to `Cc1[nH]nc2c1-c1cnc(NC(=O)[C@@H](NC(=O)c3conc3C3CC3)C(C3CC3)C3CC3)cc1COCC2` [compound 241], the IC50 at Human IL-17A [1] is at most 0.05 µM; at Human IL-17A [2], 0.1 to 0.5 µM.
In the same order, the values of `Cc1[nH]nc2c1-c1cc(F)c(NC(=O)[C@@H](NC(=O)c3ccnn3CC3(C#N)CC3)C(C3CC3)C3CC3)cc1COCC2` [compound 114] are at most 0.05 µM and 0.1 to 0.5 µM.
Regarding `Cc1[nH]nc2c1-c1cc(F)c(NC(=O)[C@@H](NC(=O)c3ccnn3C(C)C)C(C3CC3)C3CC3)cc1CN(C1CCC1)C(=O)C2` [compound 170], the IC50 is at most 0.05 µM on Human IL-17A [1] and at most 0.1 µM on Human IL-17A [2].
In the same order, the values of `COCC(COC)n1nccc1C(=O)N[C@H](C(=O)Nc1cc2c(cc1F)-c1c(n[nH]c1C)CCOC2)C(C1CC1)C1CC1` [compound 99] are 0.05 to 0.15 µM and 0.1 to 0.5 µM.
`CCc1nocc1C(=O)N[C@H](C(=O)Nc1cc2c(cn1)-c1c(n[nH]c1C)CCOC2)C(C1CC1)C1CC1` [compound 240]: the results for the IC50 at Human IL-17A [1] and at Human IL-17A [2] were at most 0.05 µM and 0.1 to 0.5 µM, respectively.
In the same order, the values of `CC(=O)N1CCc2n[nH]c(C)c2-c2cnc(NC(=O)[C@@H](NC(=O)c3ccnn3C(C)C)C(C3CC3)C3CC3)cc2C1` [compound 196] are at most 0.05 µM and 0.1 to 0.5 µM.
In the same order, the values of `Cc1[nH]nc2c1-c1cc(F)c(NC(=O)[C@@H](NC(=O)c3ccnn3C(C)C)C3CCCCC3)cc1COCC2` [compound 48] are at most 0.05 µM and 0.1 to 0.5 µM.
In the same order, the values of `Cc1[nH]nc2c1-c1ccc(NC(=O)[C@@H](NC(=O)c3ccnn3C(C)C)C(C3CC3)C3CC3)cc1CNC(=O)C2` [compound 27] are at most 0.05 µM and 0.1 to 0.5 µM.
For `Cc1[nH]nc2c1-c1ccc(NC(=O)[C@@H](NC(=O)c3ccnn3C(C)C)C(C3CC3)C3CC3)cc1CN(C)C(=O)C2` [compound 22], the IC50 on Human IL-17A [1] was at most 0.05 µM; on Human IL-17A [2] it was at most 0.1 µM.
For the compound `Cc1[nH]nc2c1-c1cnc(NC(=O)[C@@H](NC(=O)c3conc3C(C)C)C(C3CC3)C3CC3)cc1COCC2` [compound 234], the IC50 at Human IL-17A [1] was at most 0.05 µM; on Human IL-17A [2], 0.1 to 0.5 µM.
`[2H]C([2H])(C1CC1)n1nccc1C(=O)N[C@H](C(=O)Nc1cc2c(cc1F)-c1c(n[nH]c1C)CCOC2)C(C1CC1)C1CC1` [compound 76]: the IC50 on Human IL-17A [1] was at most 0.05 µM; on Human IL-17A [2] it was 0.1 to 0.5 µM.
In the same order, the values of `Cc1[nH]nc2c1-c1cc(F)c(NC(=O)[C@@H](NC(=O)c3ccnn3CC3CCC3)C(C3CC3)C3CC3)cc1COCC2` [compound 60] are at most 0.05 µM and 0.1 to 0.5 µM.
On to `Cc1[nH]nc2c1-c1cc(F)c(NC(=O)[C@@H](NC(=O)c3ccnn3CCOC3CC3)C(C3CC3)C3CC3)cc1COCC2` [compound 102], for which the results for the IC50 on Human IL-17A [1] and at Human IL-17A [2] were at most 0.05 µM and at most 0.1 µM, respectively.
`CCn1nccc1C(=O)N[C@H](C(=O)Nc1ccc2c(c1)CN(C)C(=O)Cc1n[nH]c(C)c1-2)C(C1CC1)C1CC1` [compound 23]: the IC50 on Human IL-17A [1] was at most 0.05 µM; at Human IL-17A [2], at most 0.1 µM.
On the same counts, the results for `Cc1[nH]nc2c1-c1cc(F)c(NC(=O)[C@@H](NC(=O)c3ccnn3C(C)C3CC3)C(C3CC3)C3CC3)cc1COCC2` (single isomer, unassigned) [compound 41b] are at most 0.05 µM and at most 0.1 µM.
In the same order, the values of `Cc1[nH]nc2c1-c1cc(F)c(NC(=O)[C@@H](NC(=O)c3ccnn3C[C@@H]3C[C@H]3F)C(C3CC3)C3CC3)cc1COCC2` [compound 101] are at most 0.05 µM and at most 0.1 µM.
Regarding `CCn1nccc1C(=O)N[C@H](C(=O)Nc1cc2c(cc1F)-c1c(n[nH]c1C)CCOC2)C(C1CC1)C1CC1` [compound 16], the figures for the IC50 on Human IL-17A [1] and on Human IL-17A [2] were at most 0.05 µM and 0.1 to 0.5 µM, respectively.
On the same counts, the results for `[2H]C([2H])([2H])C([2H])(n1nccc1C(=O)N[C@H](C(=O)Nc1ccc2c(c1)COCCc1n[nH]c(C)c1-2)C(C1CC1)C1CC1)C([2H])([2H])[2H]` [compound 52] are at most 0.05 µM and at most 0.1 µM.
On the same counts, the results for `Cc1[nH]nc2c1-c1ccc(NC(=O)[C@@H](NC(=O)c3ccnn3C)C(C3CC3)C3CC3)cc1COCC2` [compound 2] are at most 0.05 µM and 0.1 to 0.5 µM.
As for `Cc1[nH]nc2c1-c1cc(F)c(NC(=O)[C@@H](NC(=O)c3ccnn3CCC(F)(F)F)C(C3CC3)C3CC3)cc1COCC2` [compound 88], the figures for the IC50 on Human IL-17A [1] and on Human IL-17A [2] were 0.05 to 0.15 µM and at most 0.1 µM, respectively.
Take `Cc1[nH]nc2c1-c1cc(F)c(NC(=O)[C@@H](NC(=O)c3cnnn3CCOC(F)F)C(C3CC3)C3CC3)cc1COCC2` [compound 108]: the IC50 on Human IL-17A [1] was at most 0.05 µM; at Human IL-17A [2], 0.1 to 0.5 µM.
On the same counts, the results for `Cc1[nH]nc2c1-c1cnc(NC(=O)[C@@H](NC(=O)c3ccnn3CCCF)C(C3CC3)C3CC3)cc1COCC2` [compound 124] are at most 0.05 µM and at most 0.1 µM.
As for `Cc1[nH]nc2c1-c1cnc(NC(=O)[C@@H](NC(=O)c3ccnn3C(C)C)C(C3CC3)C3CC3)cc1CN(CC(F)F)C(=O)C2` [compound 192], the IC50 is at most 0.05 µM on Human IL-17A [1] and at most 0.1 µM at Human IL-17A [2].
